# Where a name gives a salt, the structure may show the parent alone.
# System: Acinetobacter baumannii ATCC17961
# Experiment: Antimicrobial susceptibility testing: 90% growth inhibitory concentration (IC90) determination in Iso-Sensitest broth, OD600 growth
# Assay type: cell-based
# Details: Acinetobacter baumannii, ATCC17961, 16 h, read-out: A. baumannii ATCC 17961 IC90 (uM), strain ATCC 17961, OD600 growth over 16 h
# How it was run: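 OD600 read every 20 min for 16 h at 35±2° C; inhibition taken in log phase to derive IC90. Twofold, 10-point dilutions (e.g. 50–0.097 μM final), inoculum ~5×10^(5) CFU/ml.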
row,Structure (SMILES),IC90
1,"CCc1cc(Nc2nccn3c(-c4cn(CC#N)nc4C(F)(F)F)cnc23)ccc1C(=O)NCC(=O)N1CC2(CNC2)C1 [Example 505, 4-[[3-[1-(cyanomethyl)-3-(trifluoromethyl)pyrazol-4-yl]imidazo[1,2-a]pyrazin-8-yl]amino]-N-[2-(2,6-diazaspiro[3.3]heptan-2-yl)-2-oxo-ethyl]-2-ethyl-benzamide formate]",0.449 µM
2,"CCc1cc(Nc2nccn3c(-c4cn(CC#N)nc4C(F)(F)F)cnc23)ccc1C(=O)NCC(=O)N1CCCC(N)C1 (stereo not drawn) [Example 506, N-[2-(3-amino-1-piperidyl)-2-oxo-ethyl]-4-[[3-[1-(cyanomethyl)-3-(trifluoromethyl)pyrazol-4-yl]imidazo[1,2-a]pyrazin-8-yl]amino]-2-ethyl-benzamide formate]",0.191 µM
3,"CCc1cc(Nc2nccn3c(-c4cn(CC#N)nc4C(F)(F)F)cnc23)ccc1C(=O)NCC(=O)N1CCNC(C)C1 (stereo not drawn) [Example 507, 4-[[3-[1-(cyanomethyl)-3-(trifluoromethyl)pyrazol-4-yl]imidazo[1,2-a]pyrazin-8-yl]amino]-2-ethyl-N-[2-(3-methylpiperazin-1-yl)-2-oxo-ethyl]benzamide formate]",0.245 µM
4,"CCc1cc(Nc2nccn3c(-c4cn(CC#N)nc4C(F)(F)F)cnc23)ccc1C(=O)NCC(=O)N1CC2(CC(N)C2)C1 [Example 508, N-[2-(6-amino-2-azaspiro[3.3]heptan-2-yl)-2-oxo-ethyl]-4-[[3-[1-(cyanomethyl)-3-(trifluoromethyl)pyrazol-4-yl]imidazo[1,2-a]pyrazin-8-yl]amino]-2-ethyl-benzamide formate]",0.198 µM
5,"CCc1cc(Nc2nccn3c(-c4cn(CC#N)nc4C(F)(F)F)cnc23)ccc1C(=O)NCC(=O)N1CCC(CN)C1 (stereo not drawn) [Example 509, N-[2-[3-(aminomethyl)pyrrolidin-1-yl]-2-oxo-ethyl]-4-[[3-[1-(cyanomethyl)-3-(trifluoromethyl)pyrazol-4-yl]imidazo[1,2-a]pyrazin-8-yl]amino]-2-ethyl-benzamide formate]",0.23 µM
6,"CCc1cc(Nc2nccn3c(-c4cn(CC#N)nc4C(F)(F)F)cnc23)ccc1C(=O)NCC(=O)N1CCCC1CN (stereo not drawn) [Example 510, N-[2-[2-(aminomethyl)pyrrolidin-1-yl]-2-oxo-ethyl]-4-[[3-[1-(cyanomethyl)-3-(trifluoromethyl)pyrazol-4-yl]imidazo[1,2-a]pyrazin-8-yl]amino]-2-ethyl-benzamide formate]",0.347 µM
7,"CCc1cc(Nc2nccn3c(-c4cn(CC#N)nc4C(F)(F)F)cnc23)ccc1C(=O)NCC(=O)NC1C2CNCC21 (stereo not drawn) [Example 511, N-[2-(3-azabicyclo[3.1.0]hexan-6-ylamino)-2-oxo-ethyl]-4-[[3-[1-(cyanomethyl)-3-(trifluoromethyl)pyrazol-4-yl]imidazo[1,2-a]pyrazin-8-yl]amino]-2-ethyl-benzamide formate]",0.295 µM
8,"CCc1cc(Nc2nccn3c(-c4cn(CC#N)nc4C(F)(F)F)cnc23)ccc1C(=O)NCC(=O)N1CC2CC1CN2 (stereo not drawn) [Example 512, 4-[[3-[1-(cyanomethyl)-3-(trifluoromethyl)pyrazol-4-yl]imidazo[1,2-a]pyrazin-8-yl]amino]-N-[2-(2,5-diazabicyclo[2.2.1]heptan-2-yl)-2-oxo-ethyl]-2-ethyl-benzamide formate]",0.341 µM
9,"CCc1cc(Nc2nccn3c(-c4c[nH]nc4C(F)(F)F)cnc23)ccc1C(=O)NCC1CNC1 [Example 513, N-(azetidin-3-ylmethyl)-2-ethyl-4-((3-(3-(trifluoromethyl)-1H-pyrazol-4-yl)imidazo[1,2-a]pyrazin-8-yl)amino)benzamide formate]",0.15 µM

# Same assay, conditions: Acinetobacter baumannii, ATCC17961, 16 h, strain ATCC 17961, OD600 growth over 16 h, read-out: A. baumannii ATCC 17961 IC90
row,Structure (SMILES),IC90
1,"CCc1cc(Nc2nccn3c(-c4cn(CC#N)nc4C(F)(F)F)cnc23)ccc1C(=O)NCCNC(=O)[C@H]1CC[C@@H](N)C1 [Example 496, N-(2-((1S,3R)-3-aminocyclopentane-1-carboxamido)ethyl)-4-((3-(1-(cyanomethyl)-3-(trifluoromethyl)-1H-pyrazol-4-yl)imidazo[1,2-a]pyrazin-8-yl)amino)-2-ethylbenzamide formate]",0.173 µM
2,"CCc1cc(Nc2nccn3c(-c4cn(CC(F)F)nc4C(F)(F)F)cnc23)ccc1C(=O)NCCNC(=O)[C@@H]1CC[C@H](N)C1 [Example 497, N-(2-((1R,3S)-3-aminocyclopentane-1-carboxamido)ethyl)-4-((3-(1-(2,2-difluoroethyl)-3-(trifluoromethyl)-1H-pyrazol-4-yl)imidazo[1,2-a]pyrazin-8-yl)amino)-2-ethylbenzamide formate]",0.183 µM
3,"CCc1cc(Nc2nccn3c(-c4cn(CC#N)nc4C(F)(F)F)cnc23)ccc1C(=O)NCCNC(=O)[C@H]1C[C@@H](N)C1 [Example 498, cis-N-(2-((1s,3s)-3-aminocyclobutane-1-carboxamido)ethyl)-4-((3-(1-(cyanomethyl)-3-(trifluoromethyl)-1H-pyrazol-4-yl)imidazo[1,2-a]pyrazin-8-yl)amino)-2-ethylbenzamide formate]",0.193 µM
4,"CCc1cc(Nc2nccn3c(-c4cn(CC#N)nc4C(F)(F)F)cnc23)ccc1C(=O)NCC(=O)N1CCNCC1 [Example 499, 4-[[3-[1-(cyanomethyl)-3-(trifluoromethyl)pyrazol-4-yl]imidazo[1,2-a]pyrazin-8-yl]amino]-2-ethyl-N-(2-oxo-2-piperazin-1-yl-ethyl)benzamide formate]",0.218 µM
5,"CCc1cc(Nc2nccn3c(-c4cn(CC#N)nc4C(F)(F)F)cnc23)ccc1C(=O)NCC(=O)N1CCC(N)CC1 [Example 500, N-[2-(4-amino-1-piperidyl)-2-oxo-ethyl]-4-[[3-[1-(cyanomethyl)-3-(trifluoromethyl)pyrazol-4-yl]imidazo[1,2-a]pyrazin-8-yl]amino]-2-ethyl-benzamide formate]",0.222 µM
6,"N#CCn1cc(-c2cnc3c(Nc4ccc(C(=O)NCC(=O)N5CCNCC5)c(Cl)c4)nccn23)c(C(F)(F)F)n1 [Example 501, 2-chloro-4-[[3-[1-(cyanomethyl)-3-(trifluoromethyl)pyrazol-4-yl]imidazo[1,2-a]pyrazin-8-yl]amino]-N-(2-oxo-2-piperazin-1-yl-ethyl)benzamide formate]",0.224 µM
7,"N#CCn1cc(-c2cnc3c(Nc4ccc(C(=O)NCC(=O)N5CCC(N)CC5)c(Cl)c4)nccn23)c(C(F)(F)F)n1 [Example 502, N-[2-(4-amino-1-piperidyl)-2-oxo-ethyl]-2-chloro-4-[[3-[1-(cyanomethyl)-3-(trifluoromethyl)pyrazol-4-yl]imidazo[1,2-a]pyrazin-8-yl]amino]benzamide formate]",0.233 µM
8,"Cc1cc(Nc2nccn3c(-c4cn(CC#N)nc4C(F)(F)F)cnc23)ccc1C(=O)NCC(=O)N1CCC(N)CC1 [Example 503, N-[2-(4-amino-1-piperidyl)-2-oxo-ethyl]-4-[[3-[1-(cyanomethyl)-3-(trifluoromethyl)pyrazol-4-yl]imidazo[1,2-a]pyrazin-8-yl]amino]-2-methyl-benzamide formate]",0.233 µM
9,"CCc1cc(Nc2nccn3c(-c4cn(CC#N)nc4C(F)(F)F)cnc23)ccc1C(=O)NCC(=O)N1CC[C@@H](N)C1 [Example 504, N-[2-[(3R)-3-aminopyrrolidin-1-yl]-2-oxo-ethyl]-4-[[3-[1-(cyanomethyl)-3-(trifluoromethyl)pyrazol-4-yl]imidazo[1,2-a]pyrazin-8-yl]amino]-2-ethyl-benzamide formate]",0.238 µM
